Data reported in paper PMC9202104 (BMC Biology, 2022).

Assays:
[1] = tested on: ZIKV mosquito strain MEX 2-81; assay: Plaque assay, inhibition of ZIKV infection (strain MEX 2-81); format: cell-based; conditions: Zika virus, Vero C1008; plaque assay, Vero E6 cells, mosquito strain; read-out: IC50 MEX 2-81
Procedure: (§1) After removal of the unbound compounds by centrifugation (after addition of 3% PEG-6000), ZIKV was incubated with Vero E6 cells in 24-well plates at 37°C for 1 h. The cells were then washed with PBS, overlaid with DMEM containing 1% carboxymethyl cellulose and 2% FBS, and cultured at 37°C for 4–5 days, followed by being stained with 0.5% crystal violet. […] Plaques in each well were calculated, and IC50 of compounds for each compound was calculated using the CalcuSyn computer program.

ZIKV human strain FLR = assay: Plaque assay, inhibition of ZIKV infection (strain FLR); format: cell-based; conditions: Zika virus, Vero C1008; plaque assay, Vero E6 cells, human strain; read-out: IC50 FLR
Procedure: as §1

DENV-1-V1792 = assay: Plaque assay, inhibition of DENV-1 infection in LLC-MK2 cells; format: cell-based; conditions: Dengue virus, DENV1
ZIKV EDIII protein = molecular target: T1, ZIKV EDIII protein (Zika virus, UniProt A0A024B7W1); assay: ELISA binding to ZIKV EDIII protein
T1 construct: EDIII (residues 298-409 in E protein containing a C-terminal human Fc tag); human Fc (C)
Procedure: (§2) Briefly, ELISA plates were coated with each protein (1 μg/ml) at 4°C overnight and were then incubated with blocking buffer containing 2% fat-free milk in PBST (0.05% Tween-20) at 37°C for 2 h. The above compounds, or DMSO control, at serial dilutions were added to the plates and incubated at 37°C for 2 h. After three washes using PBST, the plates were incubated at 37°C for 2 h with ZIKV EDIII-specific human mAb ZKA64-LALA (0.5 μg/ml) (for binding to ZIKV full-length E or EDIII protein), or ZIKV NS2B-NS3-specific mouse sera (for binding to NS2B-NS3 protein). After further washes, the plates were incubated with horseradish peroxidase (HRP)-conjugated anti-human IgG-Fab (1:3,000, Abcam, Cambridge, MS, USA) or anti-mouse IgG (1:3,000, Sigma) antibody at 37°C for 1 h. The plates were incubated with substrate TMB (3,3′,5,5′-tetramethylbenzidine) for 1 min, and the reaction was stopped by addition of 1 N H2SO4. Absorbance at 450 nm (A450 values) was measured by an ELISA microplate reader. Percent binding (% binding) to the E, EDIII, or NS2B-NS3 protein was calculated in the presence or absence of serially diluted compounds using the formula ((1-(E/EDIII/NS2B-NS3-compound)/(E/EDIII/NS2B-NS3))×100), based on which EC50 was calculated using the CalcuSyn program.

ZIKV NS2B-NS3 protein = molecular target: T2, ZIKV NS2B-NS3 protein (Zika virus, UniProt Q32ZE1); assay: ELISA binding to ZIKV NS2B-NS3 protein
T2 construct: fused with the genes encoding NS3 protein (residues 1-185) through a linker (Gly4-Thr-Gly4); His6 (C); made in house; host or cells: E. coli
Procedure: as §2

[2] = molecular target: T3, binding of ZIKV EDIII to EDIII-specific neutralizing mAbs (Zika virus, UniProt A0A024B7W1); assay: ELISA competition assay, EDIII-mAb binding; conditions: for IC50: mAb 0.5 μg/mL
T3 construct: EDIII (residues 298-409 in E protein containing a C-terminal human Fc tag); human Fc (C)
Procedure: ELISA was also used to determine the ability of ST087010 to inhibit the binding between ZIKV EDIII and EDIII-specific human mAbs (SMZAb5, ZKA64-LALA, ZV-67, or Z004) or EDI/II-specific human mAb (ZKA78) control. […] The plates were then sequentially incubated with HRP-conjugated anti-human IgG-Fab antibody and TMB substrate, followed by detection of A450 values. Percent inhibition (% inhibition) of compounds was calculated using the formula ((1-(EDIII-mAb-compound)/(EDIII-mAb))×100), and IC50 was obtained using the CalcuSyn computer program.

ZIKV NS2B-NS3 protease = molecular target: T4, ZIKV NS2B-NS3 protease (Zika virus, UniProt Q32ZE1); assay: Fluorescence-based NS2B-NS3 protease inhibition assay; format: biochemical
T4 construct: fused with the genes encoding NS3 protein (residues 1-185) through a linker (Gly4-Thr-Gly4); His6 (C); made in house; host or cells: E. coli
Procedure: Substrate (benzoyl-norleucinelysine-lysine-arginine 7-amino-4-methylcoumarine (Bz-Nle-Lys-Lys-Arg-AMC, 4 μM)) (Bachem, Torrance, CA, USA) was added and incubated for 10 min. Fluorescence intensity was then measured at 460 nm (with excitation at 355 nm) using a microplate reader (FLUOstar Omega, BMG Labtech, USA). A total of 10 mM Tris-HCl, 20% glycerol, 1 mM CHAPS, and 5% DMSO (pH 8.5) were used as reaction and dilution buffers. Percent inhibition (% inhibition) of protease activity was measured in the presence or absence of serially diluted compounds based on the formula ((1-(NS2B-NS3-substrate-compound)/(NS2B-NS3-substrate))×100).

DENV-2 human strain V594 = assay: DENV-2 challenge in Ifnar1−/− mice, flow cytometry titers; format: in vivo; conditions: 20 mg/kg i.p., 3 dpi
Procedure: Three days after infection, sera and tissues, including the brain, kidney, and heart, were collected and assessed for DENV infection using a flow cytometry assay, as described below. Tissues were freshly homogenized with cold culture medium (EMEM + 2% FBS) and centrifuged at 4°C and 2000 g for 10 min. Serially diluted tissue supernatants and sera were added to C6/36 cells, as described below. DENV titers in tissues or sera were assessed from ~20 mg of tissue samples, or 25 μl of sera, and used for subsequent flow cytometry analysis.
Flow cytometry assay was carried out to analyze DENV-2 titers in the supernatants of homogenized tissues and sera from DENV-2-infected mice collected above. Briefly, homogenized tissue supernatants or sera were added to C6/36 cells (5×10^5 cells/well) pre-seeded in 24-well plates which the culture medium was removed, and the cells were incubated for 1 h (28°C, 5% CO2). After incubation, the cells were washed with PBS, incubated with EMEM containing 2% FBS, and then cultured for 3 days as described above. After further removal of medium, the cells were digested, washed with PBS, and resuspended in FIX/PERM solution (Tonbo Biosciences, San Diego, CA, USA), followed by incubation at 4°C for 1 h in the dark. The cells were then sequentially incubated with mouse anti-flavivirus mAb 4G2 (2 μg/ml) at 37°C for 1 h and FITC-labeled anti-mouse IgG (0.5 mg/ml, BioLegend, San Diego, CA, USA) at 37°C for 30 min, followed by analysis using a FACScan flow cytometer and Summit software. Viral titers (infectious units/ml or infectious units/g) were calculated using the formula ((% of infected cells)×(total number of cells)×(dilution factor)/(amount of inoculum added to cells)).

[3] = C6/36 cells, flow cytometry, representative image

T3 sequence (A0A024B7W1 588-699): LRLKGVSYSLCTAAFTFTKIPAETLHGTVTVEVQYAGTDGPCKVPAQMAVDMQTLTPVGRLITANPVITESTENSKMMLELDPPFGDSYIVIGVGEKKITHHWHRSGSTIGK
T1 sequence (A0A024B7W1 588-699): as above
T2 sequence (Q32ZE1 1499-1683, added parts left off, change not shown): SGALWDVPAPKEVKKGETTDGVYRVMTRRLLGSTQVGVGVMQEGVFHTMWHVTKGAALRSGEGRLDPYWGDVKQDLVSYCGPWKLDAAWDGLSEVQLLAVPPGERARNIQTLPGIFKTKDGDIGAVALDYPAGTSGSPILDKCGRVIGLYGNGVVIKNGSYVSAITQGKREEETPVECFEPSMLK
T4 sequence (Q32ZE1 1499-1683, added parts left off, change not shown): as above

Cc1cc2c(C(C)C)c(O)c(O)c(/C=N/n3c(=O)[nH][nH]c3=O)c2c(O)c1-c1c(C)cc2c(C(C)C)c(O)c(O)c(/C=N/n3c(=O)[nH][nH]c3=O)c2c1O [ST087010]
IC50 [1]: 2.9 µM
IC50 (ZIKV human strain FLR): 2.8 µM
IC50 (DENV-1-V1792): 3.01 ± 0.11 µM
EC50 (ZIKV EDIII protein): 6.13 µM
EC50 (ZIKV NS2B-NS3 protein): 21.9 µM
Inhibition with EDI/II-specific mAb control ZKA78 ([2]; ELISA competition, ZKA78 did not bind to EDIII): no inhibition
IC50 ([2]; IC50 blocking EDIII binding to mAb SMZAb5, ELISA competition): 5.72 µM
IC50 ([2]; IC50 blocking EDIII binding to mAb Z004, ELISA competition): 44.5 µM
IC50 ([2]; IC50 blocking EDIII binding to mAb ZKA64-LALA, ELISA competition): 4.17 µM
IC50 ([2]; IC50 blocking EDIII binding to mAb ZV-67, ELISA competition): 6.7 µM
IC50 (ZIKV NS2B-NS3 protease): 4.84 µM
Numbers of infected cells (viral titers) in the brain, kidney, heart, and sera (DENV-2 human strain V594; DENV-2 V594 2×10^6 PFU, compared to gossypol and DMSO): significantly reduced
DENV-2 in brain, percentage of infected cells (DENV-2 human strain V594; [3]): 1.1%
DENV-2 in heart, percentage of infected cells (DENV-2 human strain V594; [3]): 1.0%
DENV-2 in kidney, percentage of infected cells (DENV-2 human strain V594; [3]): 3.1%
DENV-2 in sera, percentage of infected cells (DENV-2 human strain V594; [3]): 1.3%
